“Also recorded” adds a separate entry of the source.
What was measured:
[1] = system: A498 cells; assay: Alamar Blue viability assay, A498; format: cell-based; conditions: Homo sapiens, 168 h; A498, treatment for 7 days; read-out: IC50, cell viability
Description: (§1) RCC cells 786-O, 769-P, A498, and ACHN were purchased from ATCC. All the cells were authenticated by STR profiling at Genesky Biopharma Technology and tested for Mycoplasma contamination. […] For the viability assay, cells were plated on 96-well plates at the density of 0.5–1 × 10^3/well. After cell attachment, various concentrations of compounds and DMSO were added, the plates were incubated for 7 days. After the addition of 10 μL Alamar Blue and incubation for 3 h at 37 °C, fluorescent signals were measured with a PE Envision reader, at the wavelength of 544 nm for excitation and 590 nm for emission. Finally, the percentages of viability were calculated by normalizing against the control.

[2] = system: c-Myc, Bcl-2, and CDK6 mRNA expression; assay: Real-time PCR of BET downstream genes in RCC cells; format: cell-based; conditions: relative to DMSO control, normalized to β2-microglobulin
Description: Trizol reagent (Vazyme) was used to extract total RNA of ccRCC tumor samples or cells following manufacturer’s instructions. Synthesis of complementary DNA (cDNA) was done using the HiScript® II RT SuperMix (Vazyme). StepOnePlus (Life Technologies) apparatus was applied to carry out quantitative real-time PCR (qPCR). Gene-specific data were normalized to β2-microglobulin and are calculated as relative expression compared to DMSO or control group using the ΔΔCT method.

[3] = system: BET family proteins; assay: In vitro selective assay at 3 μM, BET proteins; format: binding
Description: (§2) First, we compared the inhibitory activity of BDF-1253 to displace BRD4-BD1 or BRD4-BD2 domain from acetylated H4 peptide using ALPHA assay. […] An in vitro selective assay was also conducted to examine the effect of BDF-1253 at 3 μM on the other BET proteins, other BRD proteins out of BET family (SMACAR, BPTF, PCAF) as well as several epigenetic enzymes.
(§3) Determination of inhibition against BET family members, bromodomain proteins out of the BET family as well as several epi-enzymes by BDF-1253 at 3 μM.

[4] = system: 786-O cells; assay: Alamar Blue viability assay, 786-O; format: cell-based
Description: as §1

[5] = system: c-Myc, Bcl-2, Bax, cleaved-PARP, cleaved-Caspase3 protein abundance; assay: Western blot of BET downstream and apoptosis proteins in RCC cells; format: cell-based; conditions: immunoblot
Description: Protein lysates from tissue samples were obtained using RIPA buffer supplemented with protease and phosphatase inhibitors. For the cellular samples, cells were collected following treatment with DMSO and compounds. Western blot was performed as previously described.[25] The primary antibodies were BRD2 (A302-583A, Bethyl), BRD3 (A302-368A, Bethyl), BRD4 (A301-985A, Bethyl), MYC (sc-40, Santa Cruz Biotechnology), BCL2 (ab7973, Abcam), BAX (ab32503, Abcam), cleaved PARP (Cell Signaling, #5625). The secondary antibodies were anti-rabbit IgG (Jackson, 111-035-003) or anti-mouse IgG (Jackson). HRP substrate (GE Healthcare) was used for the detection of chemical luminescence, and FUJIFILM LAS-4000 was used for image acquisition.

[6] = system: HUVEC normal cell line; assay: Viability of normal cells, HUVEC; format: cell-based; conditions: at similar concentrations as RCC cells
[7] = system: non-BET BRD-containing proteins (SMACAR, BPTF, PCAF) and epigenetic enzymes; assay: In vitro selective assay at 3 μM, non-BET bromodomain proteins and epi-enzymes; format: biochemical
Description: as §2, §3

[8] = system: 786-O xenograft tumor; assay: RCC xenograft mice model (786-O); format: in vivo, nude mice; conditions: 50 mg/kg intraperitoneally daily
Description: All animal experiments were approved by IACUC (Institutional Animal Care and Use Committee) of Shanghai Institute of Materia Medica. Four to six-week-old female nude mice purchased from Silaike Laboratory Animal Ltd. were subcutaneously inoculated with 5 × 10^6 786-O cells in 100 μL PBS. All nude mice were raised under pathogen-free conditions to achieve tumor growth. Sample size of each group (n = 7) was chosen following the instruction by http://www.biomath.info. As long as the tumor sizes reached palpable stage, the mice were randomly divided into two groups (n = 7/group). One group is for compound BDF-1253 treatment trials and the other group is the control group. […] These mice were treated intraperitoneally with either diluted compound BDF-1253 of 50 mg/kg or vehicle on a daily basis. Tumor volume was evaluated every 3 days using Vernier calipers and calculated with the equation: length × width^2 × 0.5. Animals were killed when their tumors reached 2 cm^3.

[9] = system: Caki cells; assay: Alamar Blue viability assay, Caki; format: cell-based; conditions: 168 h, treatment for 7 days, read-out: IC50, cell viability
[10] = system: RCTEC normal cell line; assay: Viability of normal cells, RCTEC; format: cell-based; conditions: at similar concentrations as RCC cells
Description: as §1

[11] = molecular target: BRD4-BD2 (Homo sapiens, UniProt O60885); assay: ALPHA assay, displacement of BRD4-BD2 from acetylated H4 peptide; format: binding
Description: as §2
(§4) Amplified Luminescent Proximity Homogeneous Assay (ALPHA) screen assay was used to determine the IC50 of compounds for competitive displacement of BRD4_BD1 from the acetylated H4 peptide. As previously described, 2.5 μL compounds and 2.5 μL proteins were added into each well of 384-well plates and incubated at room temperature for 15 min. To start the reaction, 5 μL substrate peptide was added and incubated at room temperature for 5 min. Subsequently, 5 µL nickel-chelate acceptor beads (PerkinElmer) and 5 µL streptavidin-conjugate donor beads (PerkinElmer) were added. After 60 min incubation at room temperature, data were collected by EnVision (PerkinElmer) and analyzed using GraphPad Prism 5.0.
IC50 determination of BDF-1253 against BRD4-BD1 and BRD4-BD2 using Alpha Screen method.

[12] = system: ACHN cells; assay: Alamar Blue viability assay, ACHN; format: cell-based; conditions: Homo sapiens, 168 h, treatment for 7 days, read-out: IC50, cell viability
Description: as §1

[13] = molecular target: T1, BRD4-BD1 (Homo sapiens, UniProt O60885); assay: ALPHA screen assay, displacement of BRD4-BD1 from acetylated H4 peptide; format: binding
T1 construct: with the first bromodomain of BRD4 (BRD4-BD1) were solved; 6xHis (N); made in house; host or cells: Escherichia coli BL21 (DE3)
Description: as §4

SMILES | IC50 [1] [nM] | mRNA expression levels of c-Myc, Bcl-2, and CDK6 (BET target gene transcription) [2] | effect on BET family proteins [3] | IC50 ([4]; Homo sapiens, 786-0, 168 h, 786-O, treatment for 7 days, read-out: IC50, cell viability) [nM] | effect on RCC cell proliferation ([4]; RCC 786-o cells, in words) | PRAP and Caspase3 cleavage and expression of pro-apoptotic protein Bax [5] | protein abundance of c-Myc, Bcl-2 (BRD4 downstream effectors) [5] | inhibition of normal cell viability [6] | effect on non-BET BRD-containing proteins or other epigenetic enzymes [7] | c-Myc expression in tumors (immunoblotting) [8] | tumor size ([8]; 21 days, 786-O xenograft) | body weight / toxicity ([8]; during dosing) | IC50 [9] [nM] | inhibition of normal cell viability [10] | selectivity for BRD4-BD1 or BRD4-BD2 domain [11] | IC50 [12] [nM] | IC50 [13] [nM]
CC(=O)Nc1cc(Cn2ccnc2)c2cccc(O)c2n1 [BDF-1253] | 1390 | inhibited expression; also recorded: dose-dependently decreased | selectively inhibited BET family proteins | 1510 | inhibited the proliferation | increased PRAP and Caspase3 cleavage and elevated expression of pro-apoptotic protein Bax | reduced after the treatment, in a dose-dependent manner | little inhibition | minimal effects | reduced | remarkable reduction in tumor size | no obvious loss of body weight or toxicity | 3570 | little inhibition | no obvious selectivity | 2070 | 287
O=[N+]([O-])c1ccc(O)c2ncccc12 [Nitroxoline] |  |  |  |  |  |  |  |  |  |  |  |  |  |  |  |  | 980
